Where two headings read alike, the source gives them in different places.
How the values were obtained:
EKVX = test: NCI five-dose assay; format: cell-based; conditions: Non-Small-Cell Lung Cancer EKVX
A549/ATCC = test: NCI five-dose assay; format: cell-based; conditions: Non-Small-Cell Lung Cancer A549/ATCC
T-47D = test: NCI five-dose assay; format: cell-based; conditions: Breast Cancer T-47D
HS 578T = test: NCI five-dose assay; format: cell-based; conditions: Breast Cancer HS 578T
HOP-92 = test: NCI five-dose assay; format: cell-based; conditions: Non-Small-Cell Lung Cancer HOP-92
SF-295 = test: NCI five-dose assay; format: cell-based; conditions: CNS Cancer SF-295
K-562 = test: NCI five-dose assay; format: cell-based; conditions: Leukemia K-562
SR = test: NCI five-dose assay; format: cell-based; conditions: Leukemia SR
HL-60(TB) = test: NCI five-dose assay; format: cell-based; conditions: Leukemia HL-60(TB)
UACC-62 = test: NCI five-dose assay; format: cell-based; conditions: Melanoma UACC-62
MALME-3M = test: NCI five-dose assay; format: cell-based; conditions: Homo sapiens, Melanoma MALME-3M
IGROV1 = test: NCI five-dose assay; format: cell-based; conditions: Ovarian Cancer IGROV1
HT29 = test: NCI five-dose assay; format: cell-based; conditions: Colon Cancer HT29
NCI-H226 = test: NCI five-dose assay; format: cell-based; conditions: Homo sapiens, Non-Small-Cell Lung Cancer NCI-H226
SNB-75 = test: NCI five-dose assay; format: cell-based; conditions: CNS Cancer SNB-75
Melanoma subpanel = test: NCI five-dose assay, subpanel; format: cell-based, human
Description: (§1) The outcomes were used to form log concentration vs. percentage growth inhibition curves and three response parameters (GI50, total growth inhibition (TGI), and LC50) were calculated for each cell line (Table 2).
(§2) The criterion for selectivity of a compound depends upon the ratio obtained by dividing the full-panel MID (the average sensitivity of all cell lines toward the test agent) (μM) by the individual subpanel MIDs (μM).

Renal Cancer subpanel = test: NCI five-dose assay, subpanel; format: cell-based, human
Description: as §1, §2

Breast Cancer subpanel = test: NCI five-dose assay, subpanel; format: cell-based, human; conditions: for GI50: Homo sapiens
Description: as §1, §2

CNS Cancer subpanel = test: NCI five-dose assay, subpanel; format: cell-based, human
Description: as §1, §2

Ovarian Cancer subpanel = test: NCI five-dose assay, subpanel; format: cell-based, human; conditions: for GI50: Homo sapiens
Description: as §1, §2

Colon Cancer subpanel = test: NCI five-dose assay, subpanel; format: cell-based, human; conditions: for GI50: Homo sapiens
Description: as §1, §2

Leukemia subpanel = test: NCI five-dose assay, subpanel; format: cell-based, human; conditions: for GI50: Homo sapiens
Description: as §1, §2

[1] = system: Non-Small-Cell Lung Cancer subpanel; test: NCI five-dose assay, subpanel; format: cell-based, human
Description: as §1, §2

Prostate Cancer subpanel = test: NCI five-dose assay, subpanel; format: cell-based, human
Description: as §1, §2

RPMI-8226 = test: NCI five-dose assay; format: cell-based; conditions: Leukemia RPMI-8226
[2] = Homo sapiens, read-out: GI50 Concentration/Cell Line
[3] = Homo sapiens, read-out: LC50 (the source's name)
[4] = read-out: GI50 Concentration/Cell Line
[5] = Non-Small-Cell Lung Cancer subpanel

COC(=O)C=C1SC(=NNC(=O)c2cc3ccc2CCc2ccc(cc2)CC3)N(c2ccccc2)C1=O [Compound 3a]
GI50 (EKVX; [2]): 1.91 µM | CC50 (EKVX; [3]): 9.38 µM | TGI Concentration/Cell Line (EKVX): 4.23 µM | GI50 (A549/ATCC; [2]): 2.83 µM | CC50 (A549/ATCC; [3]): > 100 µM | TGI Concentration/Cell Line (A549/ATCC): 8.00 µM | TGI Concentration/Cell Line (T-47D): 3.65 µM | GI50 (T-47D; Homo sapiens, T47D, read-out: GI50 Concentration/Cell Line): 1.54 µM | CC50 (T-47D; Homo sapiens, T47D, read-out: LC50 (the source's name)): 8.68 µM | TGI Concentration/Cell Line (HS 578T): >100 µM | GI50 (HS 578T; [2]): 3.49 µM | CC50 (HS 578T; [3]): > 100 µM | GI50 (HOP-92; [2]): 1.91 µM | CC50 (HOP-92; [3]): > 100 µM | TGI Concentration/Cell Line (HOP-92): 9.14 µM | TGI Concentration/Cell Line (SF-295): 4.19 µM | LC50 (SF-295; Homo sapiens): 8.5 µM | GI50 (SF-295; [2]): 2.07 µM | GI50 (K-562; Homo sapiens, K562, read-out: GI50 Concentration/Cell Line): 3.15 µM | CC50 (K-562; Homo sapiens, K562, read-out: LC50 (the source's name)): > 100 µM | TGI Concentration/Cell Line (K-562): >100 µM | GI50 (SR; [2]): 2.46 µM | CC50 (SR; [3]): > 100 µM | TGI Concentration/Cell Line (SR): >100 µM | GI50 (HL-60(TB); [2]): 2.7 µM | CC50 (HL-60(TB); [3]): > 100 µM | TGI Concentration/Cell Line (HL-60(TB)): >100 µM | GI50 (UACC-62; [2]): 1.96 µM | CC50 (UACC-62; [3]): 9.02 µM | TGI Concentration/Cell Line (UACC-62): 4.21 µM | GI50 (MALME-3M; [4]): 3.27 µM | CC50 (MALME-3M; read-out: LC50 (the source's name)): > 100 µM | LC50 (NCI lethal concentration, 50% net cell kill) (IGROV1; Homo sapiens, IGROV-1): 6.44 µM | GI50 (IGROV1; Homo sapiens, IGROV-1, read-out: GI50 Concentration/Cell Line): 1.66 µM | TGI Concentration/Cell Line (IGROV1): 3.27 µM | TGI Concentration/Cell Line (HT29): 4.07 µM | LC50 (HT29; Homo sapiens, HT-29): 8.56 µM | GI50 (HT29; Homo sapiens, HT-29, read-out: GI50 Concentration/Cell Line): 1.93 µM | LC50 (concentration killing 50% of tumour cells) (NCI-H226): > 100 µM | GI50 (NCI-H226; [4]): 4.38 µM | TGI Concentration/Cell Line (SNB-75): >100 µM | LC50 (SNB-75; Homo sapiens): > 100 µM | GI50 (SNB-75; [2]): 5.44 µM | GI50 (Melanoma subpanel; Homo sapiens, Melanoma subpanel average, read-out: GI50 Subpanel MID^b): 3.77 µM | GI50 Selectivity Ratio (MID^a: MID^b) (Melanoma subpanel; Melanoma subpanel): 0.63 | TGI Selectivity Ratio (MID^c: MID^d) (Melanoma subpanel; Melanoma subpanel): 0.58 | TGI Subpanel MID^d (Melanoma subpanel; Melanoma subpanel average): 36.5 µM | GI50 (Renal Cancer subpanel; Homo sapiens, Renal Cancer subpanel average, read-out: GI50 Subpanel MID^b): 1.86 µM | GI50 Selectivity Ratio (MID^a: MID^b) (Renal Cancer subpanel; Renal Cancer subpanel): 1.28 | TGI Selectivity Ratio (MID^c: MID^d) (Renal Cancer subpanel; Renal Cancer subpanel): 1.27 | TGI Subpanel MID^d (Renal Cancer subpanel; Renal Cancer subpanel average): 16.6 µM | GI50 Selectivity Ratio (MID^a: MID^b) (Breast Cancer subpanel; Breast Cancer subpanel): 1.05 | TGI Selectivity Ratio (MID^c: MID^d) (Breast Cancer subpanel; Breast Cancer subpanel): 0.87 | TGI Subpanel MID^d (Breast Cancer subpanel; Breast Cancer subpanel average): 24.3 µM | GI50 (Breast Cancer subpanel; Breast Cancer subpanel average, read-out: GI50 Subpanel MID^b): 2.27 µM | GI50 (Breast Cancer subpanel; breast cancer subpanel, read-out: GI50 values range, subpanel): 1.54 to 1.87 µM | GI50 Selectivity Ratio (MID^a: MID^b) (CNS Cancer subpanel; CNS Cancer subpanel): 0.88 | TGI Selectivity Ratio (MID^c: MID^d) (CNS Cancer subpanel; CNS Cancer subpanel): 1.08 | TGI Subpanel MID^d (CNS Cancer subpanel; CNS Cancer subpanel average): 19.5 µM | GI50 (CNS Cancer subpanel; Homo sapiens, CNS Cancer subpanel average, read-out: GI50 Subpanel MID^b): 2.71 µM | GI50 (Ovarian Cancer subpanel; Ovarian Cancer subpanel average, read-out: GI50 Subpanel MID^b): 2.59 µM | GI50 (Ovarian Cancer subpanel; ovarian cancer subpanel, read-out: GI50 values range, subpanel): 1.66 to 3.55 µM | GI50 Selectivity Ratio (MID^a: MID^b) (Ovarian Cancer subpanel; Ovarian Cancer subpanel): 0.92 | TGI Selectivity Ratio (MID^c: MID^d) (Ovarian Cancer subpanel; Ovarian Cancer subpanel): 1.14 | TGI Subpanel MID^d (Ovarian Cancer subpanel; Ovarian Cancer subpanel average): 18.5 µM | GI50 Selectivity Ratio (MID^a: MID^b) (Colon Cancer subpanel; Colon Cancer subpanel): 1.24 | TGI Selectivity Ratio (MID^c: MID^d) (Colon Cancer subpanel; Colon Cancer subpanel): 5.34 | TGI Subpanel MID^d (Colon Cancer subpanel; Colon Cancer subpanel average): 3.95 µM | GI50 (Colon Cancer subpanel; Colon Cancer subpanel average, read-out: GI50 Subpanel MID^b): 1.91 µM | GI50 (Colon Cancer subpanel; colon cancer subpanel, read-out: GI50 values range, subpanel): 1.78 to 2.13 µM | GI50 (Leukemia subpanel; Leukemia subpanel average, read-out: GI50 Subpanel MID^b): 2.72 µM | GI50 (Leukemia subpanel; leukemia subpanel, read-out: GI50 values range, subpanel): 2.15 to 3.15 µM | GI50 Selectivity Ratio (MID^a: MID^b) (Leukemia subpanel; Leukemia subpanel): 0.88 | TGI Subpanel MID^d (Leukemia subpanel; Leukemia subpanel average): 81.1 µM | GI50 ([1]; Homo sapiens, Non-Small-Cell Lung Cancer subpanel average, read-out: GI50 Subpanel MID^b): 2.74 µM | GI50 Selectivity Ratio (MID^a: MID^b) [1, 5]: 0.87 | TGI Selectivity Ratio (MID^c: MID^d) [1, 5]: 1.31 | TGI Subpanel MID^d ([1]; Non-Small-Cell Lung Cancer subpanel average): 16.1 µM | GI50 (Prostate Cancer subpanel; Homo sapiens, Prostate Cancer subpanel average, read-out: GI50 Subpanel MID^b): 3.41 µM | GI50 Selectivity Ratio (MID^a: MID^b) (Prostate Cancer subpanel; Prostate Cancer subpanel): 0.69 | TGI Selectivity Ratio (MID^c: MID^d) (Prostate Cancer subpanel; Prostate Cancer subpanel): 5.89 | TGI Subpanel MID^d (Prostate Cancer subpanel; Prostate Cancer subpanel average): 3.58 µM | LC50 (RPMI-8226; Homo sapiens): > 100 µM | GI50 (RPMI-8226; [2]): 2.15 µM | TGI Concentration/Cell Line (RPMI-8226): 5.69 µM
